The values below come from US5256700A (priority 1990, dated 1993).

Some results are limits rather than exact numbers.

For data set [1], the system named is simple herpes of type 1 (HSV1). Description: Antiviral activity in vitro, test 2 (viral production after 4 days), HSV1. In kind it is cell-based, HSV1 (cultured on VERO cell line). The following applies: for Number of viral particles/0.025 ml supernatant, Test 2 HSV1: control 2 × 10^8.
In data set [2] the test system is simple herpes of type 2 (HSV2). Description: Antiviral activity in vitro, test 2 (viral production after 4 days), HSV2. In kind it is cell-based, HSV2 (cultured on VERO cell line). The conditions noted are these: for Number of viral particles/0.025 ml supernatant, Test 2 HSV2: control 10^7.
Data set [3] in a line: Chemical stability. In kind it is physicochemical.
For data set [4] the following is noted: Brieskorn and Domling 1969; cited from earlier work.
In data set [5] the test system is DNA. Description: Degradation of DNA caused by free radicals.
For data set [6], the system named is VERO cell line.
For data set [7], the system named is certain microorganisms responsible for dental caries and bad breath. The conditions noted are these: CA 97, 84835q; cited from earlier work.
Data set [8] has as its system simple herpes of type 2 (HSV2). Description: Antiviral activity in vitro, test 1 (titer after 2 h incubation), HSV2. In kind it is cell-based, HSV2 (cultured on VERO cell line). The conditions noted are these: control 10^4.
Data set [9] relates to simple herpes of type 1 (HSV1). Kind of data set: Antiviral activity in vitro, test 1 (titer after 2 h incubation), HSV1. In kind it is cell-based, HSV1 (cultured on VERO cell line). The following applies: control 10^5.

`CC(C)c1cc2c(c(O)c1O)[C@@]1(C(=O)O)CCCC(C)(C)[C@@H]1CC2` [Carnosic acid]: the “Number of viral particles/0.025 ml supernatant, Test 2 HSV1” value is 6 × 10^6 viral particles/0.025 ml supernatant in data set [1] (0.62 μg/ml), 2.5 × 10^6 viral particles/0.025 ml supernatant in data set [1] (1.25 μg/ml), 10^5 viral particles/0.025 ml supernatant in [1] (2.5 μg/ml) and 10^2 viral particles/0.025 ml supernatant in [1] (5 μg/ml). Besides, the “production of HSV1” value in data set [1] (test 2) is given as “greatly affected”. For the same molecule, the “Number of viral particles/0.025 ml supernatant, Test 2 HSV2” value in data set [2] (0.62 μg/ml) was 8 × 10^5 viral particles/0.025 ml supernatant; in [2] (1.25 μg/ml) it was 10^5 viral particles/0.025 ml supernatant; in data set [2] (2.5 μg/ml) it was 2 × 10^2 viral particles/0.025 ml supernatant; in data set [2] (5 μg/ml) it was < 10 viral particles/0.025 ml supernatant. Besides, the “production of HSV2” value in data set [2] (test 2) was “greatly affected”. In addition, in [3] (like any catechol-type molecule), the “sensitivity to oxidation” value was “highly sensitive to oxidation”. In addition, the “stability, purified and crystallized form” value in data set [3] (purified and crystallized form) was “stable”. Moreover, in data set [4], the “antioxidant activity” value was “powerful antioxidant”. In addition, in [5], the “effect on the degradation of DNA caused by the free radicals” value is “inhibiting effect”. Also, the “cell toxicity” value in [6] is “absence of cell toxicity”. Further, the “antibiotic activity against microorganisms responsible for dental caries and bad breath” value in data set [7] was “against certain microorganisms responsible for dental caries and bad breath”. For the same molecule, the “Number of viral particles/0.025 ml supernatant, Test 1 HSV2” value in [8] (0.62 μg/ml), in data set [8] (1.25 μg/ml), in [8] (2.5 μg/ml) and in data set [8] (5 μg/ml) was 10 viral particles/0.025 ml supernatant in each case. The “Number of viral particles/0.025 ml supernatant, Test 1 HSV1” value in data set [9] (0.62 μg/ml) is reported as 10^4 viral particles/0.025 ml supernatant; in [9] (1.25 μg/ml) it was 10^3 viral particles/0.025 ml supernatant; in data set [9] (2.5 μg/ml), 10 viral particles/0.025 ml supernatant; in data set [9] (5 μg/ml), 10 viral particles/0.025 ml supernatant.
